One experiment addresses T1, WT/R232 STING protein (Homo sapiens, UniProt Q86WV6, H232R).
T1 construct: host or cells: HEK293T
The experiment in a line: Luciferase reporter assay in HEK293T-hSTING-Luciferase cells (R232). It is filed as cell-based. To be noted: 20 hr stimulation, EC50 range. The gist of the method: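 Readout is fold-induction over baseline of secreted luciferase, measured by luminescence after 20 hr compound stimulation. Cells: clonally selected HEK293T stably carrying hSTING (R232) and a luciferase reporter under five tandem ISREs fused to an ISG54 minimal promoter.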

Another experiment addresses T2, hSTING (H232) (Homo sapiens, UniProt Q86WV6).
T2 construct: host or cells: HEK293T
The experiment in a line: Luciferase reporter assay in HEK293T-hSTING-Luciferase cells (H232/REF polymorph). It is filed as cell-based. To be noted: EC50 range. In short, it runs like this: (§1)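 Clonal HEK293T lines stably expressing the hSTING variant (H232 or HAQ) plus an ISRE/ISG54-driven secreted luciferase reporter were stimulated with compounds for 20 hr. Supernatant luciferase measured by luminescence (Quanti-Luc).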
(Reporter assays use an easily measured gene product as a stand-in for the process of interest.)

The next experiment addresses T3, hSTING (HAQ) (Homo sapiens, UniProt Q86WV6, G230A/H232R/R293Q/R71H).
T3 construct: host or cells: HEK293T
The experiment in a line: Luciferase reporter assay in HEK293T-hSTING-Luciferase cells (HAQ polymorph). It counts as cell-based. The following applies: EC50 range. The gist of the method:
as §1

Another experiment relates to IRF pathway. The experiment in a line: Reporter gene expression assay for IRF axis in THP1-Dual cells (secreted Lucia luciferase). It is filed as cell-based, human. The following applies: Homo sapiens, THP1-Dual, 20 h, 20 hr stimulation, QUANTI-Luc, EC50 range, read-out: THP-IRF activity. In short, it runs like this:
(§2)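 THP1-Dual cells (THP-1 monocytes with inducible NF-κB-SEAP and IRF-Lucia reporters; 5×10^5 cells) were stimulated with compounds for 20 hr. Secreted SEAP (QUANTI-Blue) and Lucia luciferase (QUANTI-Luc) were then measured in the supernatant. EC50 values are reported as ranges.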

The subject of another experiment is NF-κB pathway. The experiment in a line: Reporter gene expression assay for NFκB axis in THP1-Dual cells (secreted SEAP). It is filed as cell-based, human. The following applies: Homo sapiens, THP1-Dual, 20 h, 20 hr stimulation, QUANTI-Blue SEAP, EC50 range, read-out: THP-NFKB activity. The gist of the method:
as §2

The structures appear in SMILES notation. A value given as a limit tells only on which side of the number the result lay.

T3 sequence (Q86WV6 whole entry R71H/G230A/H232R/R293Q): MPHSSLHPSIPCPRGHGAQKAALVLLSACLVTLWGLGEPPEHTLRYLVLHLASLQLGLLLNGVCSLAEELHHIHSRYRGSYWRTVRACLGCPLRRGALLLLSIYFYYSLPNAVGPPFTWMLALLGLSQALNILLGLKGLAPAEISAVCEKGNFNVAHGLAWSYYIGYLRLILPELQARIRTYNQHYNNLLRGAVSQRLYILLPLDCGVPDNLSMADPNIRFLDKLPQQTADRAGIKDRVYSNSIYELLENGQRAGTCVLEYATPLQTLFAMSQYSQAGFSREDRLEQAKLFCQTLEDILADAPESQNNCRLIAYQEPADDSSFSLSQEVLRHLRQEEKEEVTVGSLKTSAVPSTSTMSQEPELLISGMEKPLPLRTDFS
T1 sequence (Q86WV6 whole entry H232R): as the sequence (Q86WV6 whole entry R71H/G230A/H232R/R293Q) above, with H71R, A230G, Q293R counted along it
T2 sequence (Q86WV6 whole entry): as the sequence (Q86WV6 whole entry R71H/G230A/H232R/R293Q) above, with H71R, A230G, R232H, Q293R counted along it

`CC1(C)C(=O)N(Cc2ccc(N=[N+]=[N-])cc2)c2cc(C(=O)NCc3c(F)cc(F)cc3F)ccc21` [Example 56, 1-(4-azidobenzyl)-3,3-dimethyl-2-oxo-N-(2,4,6-trifluorobenzyl)indoline-6-carboxamide]: the EC50 at WT/R232 STING protein was at most 1 µM; on hSTING (H232), 1 to 10 µM; at hSTING (HAQ), 1 to 10 µM; with IRF pathway, above 10 µM; with NF-κB pathway it was above 10 µM.
As for `CC1(C)C(=O)N(Cc2cccc(N=[N+]=[N-])c2)c2cc(C(=O)NCc3c(F)cc(F)cc3F)ccc21` [Example 57, 1-(3-azidobenzyl)-3,3-dimethyl-2-oxo-N-(2,4,6-triflurobenzyl)indoline-6-carboxamide], the EC50 at WT/R232 STING protein is 1 to 10 µM; on hSTING (H232), 1 to 10 µM; on hSTING (HAQ), 1 to 10 µM; in the experiment on IRF pathway, above 10 µM; in the experiment with NF-κB pathway, above 10 µM.
Consider `Cc1ccc(CNC(=O)c2ccc3c(c2)N(Cc2ccc(F)cc2)C(=O)C3(C)C)o1` [Example 60, 1-(4-fluorobenzyl)-3,3-dimethyl-N-((5-methylfuran-2-yl)methyl)-2-oxoindoline-6-carboxamide], for which the EC50 at WT/R232 STING protein was 1 to 10 µM; at hSTING (H232), above 10 µM; on hSTING (HAQ), 1 to 10 µM; in the experiment on IRF pathway, above 10 µM; in the experiment with NF-κB pathway it was above 10 µM.
Regarding `Cc1ccc(CNC(=O)c2ccc3c(c2)N(Cc2cccc(F)c2F)C(=O)C3(C)C)o1` [Example 61, 1-(2,3-difluorobenzyl)-3,3-dimethyl-N-((5-methylfuran-2-yl)methyl)-2-oxoindoline-6-carboxamide], the EC50 on WT/R232 STING protein is 1 to 10 µM; on hSTING (H232), 1 to 10 µM; at hSTING (HAQ), 1 to 10 µM; with IRF pathway it was above 10 µM; with NF-κB pathway it was above 10 µM.
In the case of `Cc1ccc(CNC(=O)c2ccc3c(c2)N(Cc2c(C)cccc2F)C(=O)C3(C)C)o1` [Example 63, 1-(2-fluoro-6-methylbenzyl)-3,3-dimethyl-N-((5-methylfuran-2-yl)methyl)-2-oxoindoline-6-carboxamide], the EC50 was at most 1 µM at WT/R232 STING protein; 1 to 10 µM on hSTING (H232); 1 to 10 µM at hSTING (HAQ); above 10 µM with IRF pathway; above 10 µM with NF-κB pathway.
`Cc1cc(CN2C(=O)C(C)(C)c3ccc(C(=O)NCc4c(F)cc(F)cc4F)cc32)no1` [Example 70, 3,3-dimethyl-1-((5-methylisoxazol-3-yl)methyl)-2-oxo-N-(2,4,6-trifluorobenzyl)indoline-6-carboxamide]: the EC50 is 1 to 10 µM at WT/R232 STING protein; 1 to 10 µM at hSTING (H232); 1 to 10 µM on hSTING (HAQ); above 10 µM in the experiment on IRF pathway; above 10 µM in the experiment on NF-κB pathway.
On to `CC1(C)C(=O)N(Cc2c(F)cccc2Cl)c2cc(C(=O)NCc3ccc4occc4c3)ccc21` [Example 71, N-(benzofuran-5-ylmethyl)-1-(2-chloro-6-fluorobenzyl)-3,3-dimethyl-2-oxoindoline-6-carboxamide], for which the EC50 at WT/R232 STING protein is 1 to 10 µM; on hSTING (H232), 1 to 10 µM; on hSTING (HAQ) it was 1 to 10 µM; in the experiment with IRF pathway, above 10 µM; in the experiment on NF-κB pathway, 1 to 10 µM.
On to `CC1(C)C(=O)N(Cc2c(F)cccc2Cl)c2cc(C(=O)NCc3ccccc3F)ccc21` [Example 72, 1-(2-chloro-6-fluorobenzyl)-N-(2-fluorobenzyl)-3,3-dimethyl-2-oxoindoline-6-carboxamide], for which the EC50 on WT/R232 STING protein was at most 1 µM; at hSTING (H232), 1 to 10 µM; at hSTING (HAQ) it was 1 to 10 µM; in the experiment on IRF pathway, above 10 µM; in the experiment on NF-κB pathway it was 1 to 10 µM.
For `Cc1cccc(CN2C(=O)C(C)(C)c3ccc(C(=O)NCc4c(F)cc(F)cc4F)cc32)c1F` [Example 73, 1-(2-fluoro-3-methylbenzyl)-3,3-dimethyl-2-oxo-N-(2,4,6-trifluorobenzyl)indoline-6-carboxamide], the EC50 on WT/R232 STING protein is at most 1 µM; on hSTING (H232), at most 1 µM; on hSTING (HAQ) it was at most 1 µM; in the experiment on IRF pathway, 1 to 10 µM; in the experiment with NF-κB pathway it was 1 to 10 µM.
For `CC1(C)C(=O)N(Cc2c(F)cccc2Cl)c2cc(C(=O)NCc3cc4ccc(F)cc4o3)ccc21` [Example 74, 1-(2-chloro-6-fluorobenzyl)-N-((6-fluorobenzofuran-2-yl)methyl)-3,3-dimethyl-2-oxoindoline-6-carboxamide], the EC50 on WT/R232 STING protein is at most 1 µM; at hSTING (H232), at most 1 µM; on hSTING (HAQ) it was at most 1 µM; with IRF pathway, 1 to 10 µM; in the experiment on NF-κB pathway, 1 to 10 µM.
On to `CC1(C)C(=O)N(Cc2c(F)cccc2Cl)c2cc(C(=O)NCc3cc4cc(F)ccc4o3)ccc21` [Example 75, 1-(2-chloro-6-fluorobenzyl)-N-((5-fluorobenzofuran-2-yl)methyl)-3,3-dimethyl-2-oxoindoline-6-carboxamide], for which the EC50 on WT/R232 STING protein was at most 1 µM; at hSTING (H232), at most 1 µM; on hSTING (HAQ), at most 1 µM; with IRF pathway, 1 to 10 µM; in the experiment with NF-κB pathway, 1 to 10 µM.
As to `CC1(C)C(=O)N(Cc2c(F)cccc2C#N)c2cc(C(=O)NCc3c(F)cc(F)cc3F)ccc21` [Example 76, 1-(2-cyano-6-fluorobenzyl)-3,3-dimethyl-2-oxo-N-(2,4,6-trifluorobenzyl)indoline-6-carboxamide], the EC50 is 1 to 10 µM at WT/R232 STING protein; 1 to 10 µM at hSTING (H232); 1 to 10 µM on hSTING (HAQ); above 10 µM with IRF pathway; above 10 µM with NF-κB pathway.
Regarding `Cc1cc(CN2C(=O)C(C)(C)c3ccc(C(=O)NCc4c(F)cc(F)cc4F)cc32)nn1C` [Example 81, 1-((1,5-dimethyl-1H-pyrazol-3-yl)methyl)-3,3-dimethyl-2-oxo-N-(2,4,6-trifluorobenzyl)indoline-6-carboxamide], the EC50 on WT/R232 STING protein, at hSTING (H232), at hSTING (HAQ), in the experiment with IRF pathway and in the experiment with NF-κB pathway was 1 to 10 µM each time.
`Cc1cc(CN2C(=O)C(C)(C)c3ccc(C(=O)NCc4c(F)cc(F)cc4F)cc32)n(C)n1` [Example 82, 1-((1,3-dimethyl-1H-pyrazol-5-yl)methyl)-3,3-dimethyl-2-oxo-N-(2,4,6-trifluorobenzyl)indoline-6-carboxamide]: the EC50 on WT/R232 STING protein was at most 1 µM; on hSTING (H232), 1 to 10 µM; on hSTING (HAQ) it was 1 to 10 µM; with IRF pathway, 1 to 10 µM; with NF-κB pathway, 1 to 10 µM.
With `COc1cc(F)cc(CN2C(=O)C(C)(C)c3ccc(C(=O)NCc4c(F)cc(F)cc4F)cc32)c1` [Example 89, 1-(3-fluoro-5-methoxybenzyl)-3,3-dimethyl-2-oxo-N-(2,4,6-trifluorobenzyl)indoline-6-carboxamide], the EC50 on WT/R232 STING protein is at most 1 µM; on hSTING (H232) it was at most 1 µM; at hSTING (HAQ), at most 1 µM; in the experiment with IRF pathway it was 1 to 10 µM; in the experiment with NF-κB pathway, 1 to 10 µM.
Turning to `CC1(C)C(=O)N(Cc2c(F)cccc2Cl)c2cc(C(=O)NCc3ccc4ccoc4c3)ccc21` [Example 90, N-(benzofuran-6-ylmethyl)-1-(2-chloro-6-fluorobenzyl)-3,3-dimethyl-2-oxoindoline-6-carboxamide], the EC50 at WT/R232 STING protein is at most 1 µM; on hSTING (H232) it was 1 to 10 µM; on hSTING (HAQ), 1 to 10 µM; in the experiment with IRF pathway it was 1 to 10 µM; in the experiment with NF-κB pathway it was 1 to 10 µM.
As for `CC1(C#N)C(=O)N(Cc2cc(F)cc(F)c2)c2cc(C(=O)NCc3cc4ccccc4o3)ccc21` (stereo not shown) [Example 92, N-(benzofuran-2-ylmethyl)-3-cyano-1-(3,5-difluorobenzyl)-3-methyl-2-oxoindoline-6-carboxamide], the EC50 on WT/R232 STING protein was 1 to 10 µM; on hSTING (H232), 1 to 10 µM; on hSTING (HAQ) it was 1 to 10 µM; with IRF pathway, above 10 µM; in the experiment on NF-κB pathway, above 10 µM.
With `CC1(C)C(=O)N(Cc2noc3ncccc23)c2cc(C(=O)NCc3c(F)cc(F)cc3F)ccc21` [Example 97, 1-(isoxazolo[5,4-b]pyridin-3-ylmethyl)-3,3-dimethyl-2-oxo-N-(2,4,6-trifluorobenzyl)indoline-6-carboxamide], the EC50 is at most 1 µM at WT/R232 STING protein; 1 to 10 µM on hSTING (H232); 1 to 10 µM at hSTING (HAQ); above 10 µM in the experiment with IRF pathway; above 10 µM in the experiment with NF-κB pathway.
Turning to `CC1(C)C(=O)N(Cc2noc3ccccc23)c2cc(C(=O)NCc3c(F)cc(F)cc3F)ccc21` [Example 98, 1-(benzo[d]isoxazol-3-ylmethyl)-3,3-dimethyl-2-oxo-N-(2,4,6-trifluorobenzyl)indoline-6-carboxamide], the EC50 was at most 1 µM on WT/R232 STING protein; at most 1 µM on hSTING (H232); 1 to 10 µM at hSTING (HAQ); above 10 µM in the experiment with IRF pathway; above 10 µM with NF-κB pathway.
On to `CC1(C)C(=O)N(Cc2coc3ccccc23)c2cc(C(=O)NCc3c(F)cc(F)cc3F)ccc21` [Example 100, 1-(benzofuran-3-ylmethyl)-3,3-dimethyl-2-oxo-N-(2,4,6-trifluorobenzyl)indoline-6-carboxamide], for which the EC50 is 1 to 10 µM at WT/R232 STING protein; 1 to 10 µM on hSTING (H232); 1 to 10 µM on hSTING (HAQ); above 10 µM with IRF pathway; above 10 µM in the experiment on NF-κB pathway.

The values above are taken from US20200172483A1, “HETEROCYCLIC SMALL MOLECULE MODULATORS OF HUMAN STING” (Curadev Pharma Limited, priority 2017, published 2020).
